Measured values from patent US20250376698A1, “COMPOSITIONS AND METHODS FOR PROMOTING LIVER REGENERATION BY GENE EDITING IN METABOLIC LIVER DISEASE” (priority 2022, published 2025).
Read-outs that look alike come from different tables or passages of the source.

How the values were obtained:
[1] = Description: Vector genomes in liver were quantified with qPCR. Briefly, AAV vector genome copy number was measured by quantitative real-time PCR with liver genomic DNA and normalized to β-actin. Plasmid DNA corresponding to 0.01 to 100 copies of canine G6Pase gene (in 500 ng genomic DNA) was used in a standard curve. qPCR was performed on a Lightcycler 480 (Roche Diagnostics, Basel, Switzerland) using SYBR Green mix (Thermo-Fisher Scientific, Waltham, MA) and the following primers: cG6Pc Fwd (5′-[…]-3′, SEQ ID NO: 65), cG6Pc Rev (5′-[…]-3′, SEQ ID NO: 66), hG6PC Fwd (5′-[…]-3′, SEQ ID NO: 67), hG6PC Rev (5′-[…]-3′, SEQ ID NO: 68), saCas9 Fwd (5′-[…]-3′, SEQ ID NO: 69), saCas9 Rev (5′-[…]-3′, SEQ ID NO: 70), cB-actin Fwd (5′-[…]-3′, SEQ ID NO: 71), cB-actin Rev (5′-[…]-3′, SEQ ID NO: 72). Cycling conditions were 95° C. for 5 min, followed by 45 cycles of 95° C. for 10 s, 60° C. for 10 s, and 72° C. for 20 s followed by acquisition.
G6Pase activity in liver = assay: Liver G6Pase activity in GSD Ia dogs; format: in vivo, dog; settings: 32 months of age, before CRISPR (BC), after gene replacement as neonates
Description: G6Pase activity and glycogen levels were analyzed at 4- and 16-months following genome editing at 34 months of age as described in (Koeberl, D. et al., (2006). Early, sustained efficacy of adeno-associated virus vector-mediated gene therapy in glycogen storage disease type Ia. Gene Therapy. 13, 1281-1289). Both assays reflected corrections of the biochemical abnormalities in comparison with untreated affected controls. Normal activity was measured in a group of three unaffected dogs (two carriers and one wildtype; both genotypes are accepted as normal controls in published studies of animals with GSD Ia). Briefly, liver biopsy tissues, obtained as described in Example 2, were flash-frozen and stored at −70° C. Glycogen content was measured by complete digestion of polysaccharide using amyloglucosidase (Sigma Chemical Co., St. Louis, MO). The structure of the polysaccharide was inferred by using phosphorylase free of the debranching enzyme to measure the yield of glucose-1-phosphate. Specific G6Pase activity was measured by using glucose-6-phosphate as substrate after subtraction of nonspecific phosphatase activity as estimated by β-glycerophosphate.

GSD Ia puppies = assay: Clinical course (hypoglycemia, survival) of GSD Ia puppies treated as neonates; format: in vivo, dog
Text: In this example, puppies with GSD Ia were initially treated with AAV-CRISPR/Cas9 and AAV-cG6PC (Donor) to perform neonatal genome editing at 2 days of age, followed by gene replacement therapy with one or more alternative serotypes of AAV to control symptoms of GSD Ia at the indicated ages for the individual puppies (Puppy 1 shown in green, Puppy 2 in purple in FIG. 4A, see Table 3 below for details). The control group of dogs were those described in Example 2 that received 3 doses of gene replacement therapy during infancy.
As shown in FIG. 4A and described in Table 3 below, two puppies with GSD Ia were treated with genome editing as neonates at a 5:1 ratio of AAV7-cG6PC and AAV7-SaCas9. One puppy was dosed at 4×10^13 vp/kg AAV7-cG6PC and 8×10^12 vp/kg AAV7-SaCas9. The other was dosed with 5×10^13 vp/kg AAV7-cG6PC and […] AAV7-SaCas9. […] Specifically, one puppy (the first described above) received two doses of gene replacement therapy (e.g., AAV10 G6Pase at 3×10^12 vp/kg and AAV8 G6Pase at 1×10^13 vp/kg) at ages 2 and 3 months, respectively. The second puppy received only one gene replacement therapy at 2 months of age (e.g., AAV9 G6Pase at 3×10^13 vp/kg). Table 3 below details the treatment protocols used for both puppies.

canine G6PC locus = assay: Nested integration PCR in transfected GSD Ia dog fibroblasts; format: cell-based
Description: Next, a nested PCR reaction was performed to detect levels of DNA integration in genomic DNA in the transfected fibroblasts. Fibroblast DNA were extracted using the Wizard Genomic DNA Purification Kit (Promega, Madison, WI, USA). The canine G6Pc locus was amplified by Q5 Taq Polymerase (NEB, Ipswich, MA, USA) with the following reagents: 5 μL of Q5 buffer, 5 μL of high GC enhancer solution, 2 μL of 2.5 mM dNTP mix, 1.25 μL of 10 uM primer P1 (5′-[…]-3′, SEQ ID NO: 59)), 1.25 μL of 10 uM primer P4 (5′-[…]-3′, SEQ ID NO: 62)), 9.25 μL of water, 1 μL (100 ng) of genomic DNA, and 0.25 μL of Q5 Taq Polymerase. Cycling conditions were 35 cycles of denaturation at 95° C. for 30 s, annealing at 59° C. for 30 s, extension at 72° C. for 2 min, followed by incubation at 4° C. One microliter of first-round PCR products was used in a nested reaction with the same conditions except primers were P2 (5′-[…]-3′ (SEQ ID NO: 60)) and P3 (5′-[…]-3′ (SEQ ID NO: 61)) and cycling was 30 cycles. Control primers were P5 (5′-[…]-3′ (SEQ ID NO: 63)) and P6 (5′-[…]-3′ (SEQ ID NO: 64)).
Sequencing of the integration PCR product (total sequence: SEQ ID NO: 52) confirmed the donor sequence was inserted in the dog G6PC gene at the exon 1/intron 1 boundary. […]

[2] = dogs treated as adults, months 4 and 16 after gene editing vectors
[3] = puppies treated as neonates, Months 4 and 16

Row | Substance | vector copy number in liver ([1]; dogs treated as adults, 4 months following gene editing (4M)) [vg/nucleus] | vector genomes in liver (qPCR) [1, 2] | vector genomes in liver (qPCR) [1, 3] | G6Pase activity in liver (G6Pase activity in liver) | effect of gene replacement vector on recurrent hypoglycemia (GSD Ia puppies; puppies, given at 2 (and 3) months) | transgene integration (integration PCR) (canine G6PC locus) | vector copy number in liver, compared with AAV-G6Pase ([1]; dogs treated as adults, 4 months following gene editing) | hypoglycemia and survival in the first two months of life (GSD Ia puppies; GSD Ia puppies treated at 2 days of age)
1 | AAV-G6Pase: gene replacement AAV vector delivering human G6Pase cDNA under a human G6Pase minimal promoter, episomal expression (SEQ ID NO: 49; Luo et al. 2011) [reference compound] | < 0.1 | detected | detected | 29±8 % of normal | reversed their symptoms |  |  | 
2 | AAV-cG6PC: AAV donor vector: canine G6Pc cDNA flanked by canine G6PC 5' and 3' homology arms (SEQ ID NO: 43) |  | detected | detected |  |  | no detectable integration events | Higher copy numbers | efficacious in preventing hypoglycemia and improving survival
